The target of one experiment is T1, Gelatinase (MMP-2) (Homo sapiens, UniProt P08253).
T1 sequence (P08253 110-660): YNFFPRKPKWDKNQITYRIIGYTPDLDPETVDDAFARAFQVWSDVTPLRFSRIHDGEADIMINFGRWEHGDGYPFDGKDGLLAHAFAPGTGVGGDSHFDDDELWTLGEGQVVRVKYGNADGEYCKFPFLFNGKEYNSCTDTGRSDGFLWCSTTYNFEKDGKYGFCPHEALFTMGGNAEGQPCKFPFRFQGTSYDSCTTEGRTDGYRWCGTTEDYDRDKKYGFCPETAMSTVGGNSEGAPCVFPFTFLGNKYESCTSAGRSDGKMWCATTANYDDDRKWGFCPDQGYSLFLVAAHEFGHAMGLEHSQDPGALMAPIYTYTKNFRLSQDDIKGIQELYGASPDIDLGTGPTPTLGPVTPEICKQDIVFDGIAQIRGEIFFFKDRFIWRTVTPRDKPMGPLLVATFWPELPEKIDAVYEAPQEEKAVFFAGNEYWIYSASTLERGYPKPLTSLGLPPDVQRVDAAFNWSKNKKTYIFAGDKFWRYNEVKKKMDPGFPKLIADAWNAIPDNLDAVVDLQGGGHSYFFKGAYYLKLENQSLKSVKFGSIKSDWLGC
Briefly: Gelatinase (MMP-2) inhibitory activity, fluorogenic peptide substrate cleavage. The class given is biochemical. The note with it: read-out: MMP02 IC50. The essentials:
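Fluorogenic assay with MCA-Lys-Pro-Leu-Gly-Leu-Dpa-Ala-Arg-NH2 at 5 μM in Tris-Cl pH 7.5 buffer with ZnCl2, CaCl2, Brij-35 and 1.0% DMSO, 20-25 °C. Enzyme preincubated with inhibitor 60 min; fluorescence (ex 325/em 405 nm) read 60 min after substrate addition. IC50 relative to uninhibited control.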

A further experiment concerns the target Collagenase-3 (MMP-13) (Homo sapiens, UniProt P45452). The experiment in a line: Collagenase-3 (MMP-13) inhibitory activity, fluorogenic peptide substrate cleavage. The class given is biochemical. The following applies: read-out: MMP13 IC50. In a few lines:
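Recombinant pro-MMP-13 activated with 1 mM APMA; inhibitor preincubated 60 min, then 5 μM MCA-Lys-Pro-Leu-Gly-Leu-Dpa-Ala-Arg-NH2 added in Tris-Cl pH 7.5 buffer with Zn2+, Ca2+, Brij-35, 1.0% DMSO, 20-25 °C. Fluorescence (ex 325/em 405 nm) read after 60 min; IC50 versus uninhibited control.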

This note sets out measurements from patent US20130096105A1, “ArylSulfonamide Based Matrix Metalloprotease Inhibitors” (NOVARTIS AG, priority 2008, published 2013).

With `CC(C)CCn1ccc2cc(C(=O)c3ccc(Cl)c(S(N)(=O)=O)c3)ccc21` [Example 117, 2-Chloro-5-[1-(3-methyl-butyl)-1H-indole-5-carbonyl]benzenesulfonamide], the IC50 amounted to 26700 nM at Gelatinase (MMP-2) and 23000 nM on Collagenase-3 (MMP-13).

On to `NS(=O)(=O)c1cc(C(=O)c2ccc3c(-c4ccccc4)c[nH]c3c2)ccc1Cl` [Example 118, 2-Chloro-5-(3-phenyl-1H-indole-6-carbonyl)-benzenesulfonamide], for which the IC50 at Gelatinase (MMP-2) was 2000 nM; at Collagenase-3 (MMP-13), 1030 nM.

On to `COc1ccc(-c2c[nH]c3cc(C(=O)c4ccc(Cl)c(S(N)(=O)=O)c4)ccc23)cc1` [Example 119, 2-Chloro-5-[3-(4-methoxy-phenyl)-1H-indole-6-carbonyl]-benzenesulfonamide], for which the IC50 on Gelatinase (MMP-2) worked out at 24000 nM; on Collagenase-3 (MMP-13), 6040 nM.

For `NS(=O)(=O)c1cc(C(=O)c2ccc3c(-c4ccc(F)cc4)c[nH]c3c2)ccc1Cl` [Example 120, 2-Chloro-5-[3-(4-fluoro-phenyl)-1H-indole-6-carbonyl]-benzenesulfonamide], the IC50 is 1900 nM at Gelatinase (MMP-2) and 950 nM on Collagenase-3 (MMP-13).

In the case of `CC(=O)c1cccc(-c2c[nH]c3cc(C(=O)c4ccc(Cl)c(S(N)(=O)=O)c4)ccc23)c1` [Example 121, 5-[3-(3-Acetyl-phenyl)-1H-indole-6-carbonyl]-2-chloro-benzenesulfonamide], the concentration for half-maximal inhibition (IC50) at Gelatinase (MMP-2) came to 3900 nM; at Collagenase-3 (MMP-13) it was 590 nM.

With `CC(=O)c1ccc(-c2c[nH]c3cc(C(=O)c4ccc(Cl)c(S(N)(=O)=O)c4)ccc23)cc1` [Example 122, 5-[3-(4-Acetyl-phenyl)-1H-indole-6-carbonyl]-2-chloro-benzenesulfonamide], the IC50 at Gelatinase (MMP-2) was found to be 12500 nM; on Collagenase-3 (MMP-13), 1450 nM.

Consider `CS(=O)(=O)c1cccc(-c2c[nH]c3cc(C(=O)c4ccc(Cl)c(S(N)(=O)=O)c4)ccc23)c1` [Example 123, 2-Chloro-5-[3-(3-methanesulfonyl-phenyl)-1H-indole-6-carbonyl]-benzenesulfonamide], for which the IC50 is 5020 nM at Gelatinase (MMP-2) and 390 nM at Collagenase-3 (MMP-13).

With `CS(=O)(=O)c1ccc(-c2c[nH]c3cc(C(=O)c4ccc(Cl)c(S(N)(=O)=O)c4)ccc23)cc1` [Example 124, 2-Chloro-5-[3-(4-methanesulfonyl-phenyl)-1H-indole-6-carbonyl]-benzenesulfonamide], the IC50 at Gelatinase (MMP-2) was determined as 19700 nM; at Collagenase-3 (MMP-13) it was 540 nM.

As for `CCS(=O)(=O)c1ccc(-c2c[nH]c3cc(C(=O)c4ccc(Cl)c(S(N)(=O)=O)c4)ccc23)cc1` [Example 125, 2-Chloro-5-[3-(4-ethanesulfonyl-phenyl)-1H-indole-6-carbonyl]-benzenesulfonamide], the figures for the IC50 on Gelatinase (MMP-2) and on Collagenase-3 (MMP-13) were over 30000 nM and 1010 nM, respectively.

Regarding `NS(=O)(=O)c1cc(C(=O)c2ccc3c(-c4ccc(-c5ccccc5)cc4)c[nH]c3c2)ccc1Cl` [Example 126, 5-(3-Biphenyl-4-yl-1H-indole-6-carbonyl)-2-chloro-benzenesulfonamide], the IC50 amounted to 22800 nM on Gelatinase (MMP-2) and 10000 nM at Collagenase-3 (MMP-13).

In the case of `NS(=O)(=O)c1cc(C(=O)c2ccc3c(-c4ccc5[nH]ccc5c4)c[nH]c3c2)ccc1Cl` [Example 129, 5-(1H,1′H-[3,5′]Biindolyl-6-carbonyl)-2-chloro-benzenesulfonamide], the IC50 stood at 2950 nM at Gelatinase (MMP-2) and 1650 nM on Collagenase-3 (MMP-13).

As to `NS(=O)(=O)c1cc(C(=O)c2ccc3c(-c4cccnc4)c[nH]c3c2)ccc1Cl` [Example 130, 2-Chloro-5-(3-pyridin-3-yl-1H-indole-6-carbonyl)benzenesulfonamide], the IC50 on Gelatinase (MMP-2) was determined as 2620 nM; on Collagenase-3 (MMP-13), 240 nM.

With `NS(=O)(=O)c1cc(C(=O)c2ccc3c(-c4cncnc4)c[nH]c3c2)ccc1Cl` [Example 131, 2-Chloro-5-(3-pyrimidin-5-yl-1H-indole-6-carbonyl)-benzenesulfonamide], the figures for the IC50 at Gelatinase (MMP-2) and on Collagenase-3 (MMP-13) were 4000 nM and 195 nM, respectively.

In general, IC50 refers to the concentration at which inhibition is half-maximal.
